Where two headings read alike, the source gives them in different places.
Experiments:
[1] = system: Aspergillus brasiliensis ATCC 16404; assay: Synergy test, high resolution MIC microtiter plate assay, Potato Dextrose Broth; assay type: cell-based; settings: A. brasiliensis ATCC 16404, PDB, contact time 7 days; for SI (Synergy Index, Qa/QA+Qb/QB): SI less than one = synergy; for MIC: Aspergillus brasiliensis, ATCC16404, 168 h, 25° C.
From the text: (§1) One measure of synergism is the industrially accepted method described by Kull, F. C.; Eisman, P. C.; Sylwestrowicz, H. D. and Mayer, R. L., in Applied Microbiology 9:538-541 (1961), using the ratio determined by the formula:
(§2) Qa/QA+Qb/QB=Synergy Index (“SI”)
(§3) wherein: • QA=concentration of compound A (first component) in ppm, acting alone, which produced an end point (MIC of Compound A). • Qa=concentration of compound A in ppm, in the mixture, which produced an end point. • QB=concentration of compound B (second component) in ppm, acting alone, which produced an end point (MIC of Compound B). • Qb=concentration of compound B in ppm, in the mixture, which produced an end point.
(§4) When the sum of Qa/QA and Qb/QB is greater than one, antagonism is indicated. […] The lower the SI, the greater is the synergy shown by that particular mixture. The minimum inhibitory concentration (MIC) of a microbicide is the lowest concentration tested under a specific set of conditions that prevents the growth of the tested microorganisms.
(§5) Synergy tests were conducted using standard microtiter plate assays with media designed for optimal growth of the test microorganism. Potato Dextrose Broth (PDB medium) was used for testing yeast and mold. In this method, a wide range of combinations of microbicides and other personal care raw materials was tested by conducting high resolution MIC assays in the presence of lactic acid. High resolution MICs were determined by adding varying amounts of microbicide to one column of a microtitre plate and doing subsequent […] dilutions using an automated liquid handling system to obtain a series of closely spaced endpoints.
(§6) The synergy of the combinations of the present invention was determined against a yeast, Candida albicans (C. albicans—ATCC 10231) and a mold, Aspergillus brasiliensis (A. brasiliensis—ATCC 16404). The yeast and mold were used at concentrations of 5×10^5 cells per mL. These microorganisms are representative of natural contaminants in many consumer and industrial applications.
(§7) In this test, First Component (A) was lactic acid and the Second Component (B) was caprylic acid.
(§8) First Component (A)=Lactic acid (LA) Second Component (B)=Caprylic acid (CA) • Table 1: Aspergillus brasiliensis • ATCC 16404 • Potato Dextrose Broth • Contact Time=7 days • Table 2: Candida albicans • ATCC 10231 • Potato Dextrose Broth • Contact Time=48 hours

[2] = system: Candida albicans ATCC 10231; assay: as above; assay type: cell-based; settings: C. albicans ATCC 10231, PDB, contact time 48 hours
From the text: as §1, §2, §3, §4, §5, §6, §7, §8

| MIC ([1]; caprylic acid alone, read-out: Caprylic Acid, ppm: MIC for caprylic acid alone (QB)) [mg/mL] | MIC ([2]; Candida albicans, ATCC10231, caprylic acid alone, 25° C., read-out: Caprylic Acid, ppm: MIC for caprylic acid alone (QB)) [µg/mL] | MIC ([1]; lactic acid alone, read-out: Lactic Acid, ppm: MIC for lactic acid alone (QA)) [mg/mL] | SMILES | SI (Synergy Index, Qa/QA+Qb/QB) [1] | SI (Synergy Index, Qa/QA+Qb/QB) ([2]; SI less than one = synergy) |
| --- | --- | --- | --- | --- | --- |
| 10 | 60 | – | CCCCCCCC(=O)O [Caprylic Acid, octanoic acid] | 1.00 | 1.00 |
| – | – | 30 | CC(O)C(=O)O (stereo not drawn) [Lactic Acid, 2-hydroxypropanoic acid] | 1.00 | – |
